What was measured:
[1] = test system: H3K4me3 in ID8 cells; experiment: immunoblot of H3K4me3, ID8; assay type: cell-based, mouse; details: ID8, 10 μM
Description: FIG. 2A-FIG. 2J show KDM5A inhibition suppresses tumor growth in vivo in an immune-competent mouse model of ovarian cancer. (FIG. 2A) Expression of Kdm5a, H3K4me3, and a loading control β-actin in doxycycline-inducible shKdm5a ID8 mouse EOC cells treated with or without 2 μg/mL of doxycycline. (FIG. 2B) ID8 cells were plated into 24 well plates and treated with 2 μg/mL of doxycycline the same day. Cells were incubated for 8 days. Relative cell viability was determined by colony formation assay. (FIG. 2C) Expression of Kdm5a, H3K4me3, and a loading control β-actin in ID8 cells treated with 10uM CPI-455 or vehicle control. (FIG. 2D) ID8 cells were plated into 24 well plates and incubated with 10 μM CPI-455 for 8 days with fresh drug-containing media every 3 days. Relative cell viability was determined by colony formation assay. (FIG. 2E) Ascites produced in C57BL/6 mice injected with doxycycline-inducible shKdm5a ID8 cells treated with control or doxycycline containing food. (FIG. 2F) Quantification of ascites volumes from FIG. 2E. […] (FIG. 21) Quantification of ascites volumes from FIG. 2H. […] Data represent mean±SEM of three biological repeats or 5 mice per group; P-value was calculated by using a two-tailed Student t test except in FIG. 2G and FIG. 2J by log rank tests.
Cells were trypsinized and washed two times with PBS. […] Protein concentration was measured by the BCA assay (Pierce, Cat #23225). […]

[2] = test system: ID8 cells; experiment: syngeneic ovarian cancer mouse model, CPI-455 treatment; assay type: in vivo; details: 50 mg/kg i.p., immuno-competent C57BL/6 mice bearing ID8
[3] = test system: HGS2 cells; experiment: cell viability by colony formation assay, HGS2; assay type: cell-based, mouse; details: HGS2, 10 μM, 8 days
Description: FIG. 6A-FIG. 6K show KDM5A inhibition promotes anti-tumor immune response in vivo. (FIG. 6A) Expression of H3K4me3, Kdm5a and a loading control b-actin in an independent second doxycycline-inducible shKdm5a ID8 clone treated with or without 2 μg/mL of doxycycline. (FIG. 6B) Same as FIG. 6A, but doxycycline-inducible shKdm5a ID8 cells were plated into 24 well plates and treated with 2 μg/mL of doxycycline the same day. Cells were incubated for 8 days. Relative cell viability was determined by colony formation assay. (FIG. 6C) Expression of H3K4me3, Kdm5a and a loading control b-actin in HGS2 cells treated 10 μM of CPI-455 or vehicle controls for 72 hours. […] Relative cell viability was determined by colony formation assay. (FIG. 6E-FIG. 6F) Bioluminescence signal was measured by IVIS system in indicated animal groups in the immunocompetent C57BL/6 mouse model once a week (FIG. 6E) and the survival of the indicated groups was determined by Kaplan-Meier survival curves (FIG. 6F) (n=5 mice per group). […] Ascites volumes produced from the indicated groups were quantified (FIG. 6H). n=5 mice per group. […] (FIG. 6J-FIG. 6K) Bioluminescence signal was measured by IVIS system in indicated animal groups in the immunocompromised NSG mouse model once a week (FIG. 6J), or examined for Kaplan-Meier survival curves for the indicated groups (FIG. 6K). […]

CPI-455
H3K4me3 levels [1]: increase H3K4me3 levels
ascites production [2]: significantly reduced ascites production
survival of tumor bearing mice [2]: improved the survival
cell viability [3]: did not affect cell viability

Source: patent publication US20240139197A1, “INHIBITION OF KDM5A FOR PROMOTING ANTIGEN PRESENTATION, INCREASING CD8+ T CELL INFILTRATION AND BOOSTING ANTI-TUMOR IMMUNE RESPONSE” (The Wistar Institute of Anatomy and Biology, priority 2022, published 2024)
